Assay results from ChEMBL document CHEMBL1142305, “The effect of flavonoid derivatives on doxorubicin transport and metabolism” (Bioorg Med Chem, 2008).

Tests used:
MDA-MB-435 [1] = test: Cytotoxicity against human MDA-MB-435 cells at 10 uM after 96 hrs by MTT assay; assay type: cell-based; settings: mda-mb-435, 96 h
Liver [2] = test: Effect on doxorubicin metabolism in human liver cytosolic fractions assessed as inhibition of formation of doxorubicinol at 30 uM; assay type: ADME, subcellular; settings: cytosol
[3] = Inhibition of drug efflux in human NCI-ADR-RES cells at 100 nM after 120 mins in presence of 100 uM verapamil; assay type: ADME, cell-based; settings: 2 h, 0.1 µM
MDA-MB-435 [4] = test: Effect on drug uptake in human MDA-MB-435 cells in presence of 10 uM verapamil; assay type: ADME, cell-based
MDA-MB-435 [5] = test: Increase in drug uptake in human MDA-MB-435 cells in presence of 100 uM verapamil; assay type: ADME, cell-based
MDA-MB-435 [6] = test: Effect on drug efflux in human MDA-MB-435 cells at 100 nM upto 120 mins; assay type: ADME, cell-based; settings: mda-mb-435, 2 h, 0.1 µM
[7] = Increase in drug uptake in human NCI-ADR-RES cells in presence of 100 uM verapamil; assay type: ADME, cell-based
MDA-MB-435 [8] = test: Drug uptake in human MDA-MB-435 cells in presence of 100 uM MK-571; assay type: ADME, cell-based
[9] = Effect on drug uptake in human NCI-ADR-RES cells in presence of 10 uM verapamil; assay type: ADME, cell-based
[10] = Effect on drug efflux in human NCI-ADR-RES cells at 100 nM upto 120 mins; assay type: ADME, cell-based; settings: 2 h, 0.1 µM
Liver [11] = test: Effect on doxorubicin metabolism in human liver cytosolic fractions assessed as inhibition of formation of doxorubicinol; assay type: ADME, subcellular, Cytosol
[12] = Decrease in [14C]DOX accumulation in human NCI-ADR-RES cells at 30 uM after 120 mins; assay type: ADME, cell-based; set-up: scale not given: the % may be the effect or the level left; settings: 2 h
[13] = Effect on [14C]DOX efflux in human NCI-ADR-RES cells; assay type: ADME, cell-based
Liver [14] = test: Metabolic stability in human liver cytosolic fraction assessed as formation of doxorubicinol after 60 mins; assay type: ADME, subcellular; settings: cytosol, 1 h
Liver microsomes = test: Metabolic stability in human liver microsomal fraction assessed as formation of doxorubicin aglycone after 60 mins; assay type: ADME, Microsome; settings: 1 h

Which Activity (MDA-MB-435 [1]) does the source give for `O=c1c(O)c(-c2ccc(O)c(O)c2)oc2cc(O)ccc12` [FISETIN] here?
The Activity was “Toxic”.

For `COc1cc(O)c2c(c1)O/C(=C\c1ccccc1)C2=O`, which Activity (Liver [2]) is on record?
Its Activity is “Active”.

What about the Activity (MDA-MB-435 [1]) of the same molecule?
The Activity was “Toxic”.

Which Activity [3] does the source give for `C[C@@H]1O[C@@H](O[C@H]2C[C@](O)(C(=O)CO)Cc3c(O)c4c(c(O)c32)C(=O)c2c(O[14CH3])cccc2C4=O)C[C@H](N)[C@@H]1O` here?
The Activity was “Active”.

And the Activity (MDA-MB-435 [4])?
The Activity was “Not Active”.

What about the Fold change (MDA-MB-435 [5]) of the same molecule?
Its Fold change is 3.7.

And the Activity (MDA-MB-435 [6])?
Its Activity is 23%.

What about the Fold change [7] of the same molecule?
Its Fold change is 7.6.

And the Activity (MDA-MB-435 [8])?
The Activity was “Not Active”.

And the Activity [9]?
The Activity was “Not Active”.

And the Activity [10]?
The Activity was 66%.

Which IC50 (Liver [11]) does the source give for `O=c1c(O)c(-c2ccc(O)c(O)c2)oc2cc(O)cc(O)c12` [QUERCETIN] here?
The IC50 was 16.2 µM.

What about the Activity [12] of the same molecule?
The Activity was 51.3%.

And the Activity [13]?
The Activity was “Not Active”.

And the Activity (MDA-MB-435 [1])?
Its Activity is “Toxic”.

Which Activity (MDA-MB-435 [1]) does the source give for `COc1cc(O)c2c(c1)O/C(=C\c1ccc(Cl)cc1)C2=O` here?
The Activity was “Toxic”.

Which results are given for `O=C(/C=C/c1ccc(I)cc1)c1c(O)cc(O)cc1O`?
Activity (Liver [2]): Active; Activity (MDA-MB-435 [1]): Toxic

For `CCc1ccc(/C=C2\Oc3cc(OC)cc(O)c3C2=O)cc1`, which Activity (MDA-MB-435 [1]) is on record?
Its Activity is “Toxic”.

Which Activity (Liver [14]) does the source give for `COc1cccc2c1C(=O)c1c(O)c3c(c(O)c1C2=O)C[C@@](O)(C(=O)CO)C[C@@H]3O[C@H]1C[C@H](N)[C@H](O)[C@H](C)O1` [DOXORUBICIN] here?
The Activity was 15.1%.

And the Activity (Liver microsomes)?
Its Activity is 4.63%.

With `COc1cc(OC)c2c(c1)O/C(=C\c1cc(OC)c(OC)cc1OC)C2=O` as the molecule, how does the Activity (MDA-MB-435 [1]) read?
Its Activity is “Toxic”.

With `O=C1C[C@@H](c2ccc(O)c(O)c2)Oc2cc(O)cc(O)c21` [ERIODICTYOL] as the molecule, how does the Activity (MDA-MB-435 [1]) read?
The Activity was “Toxic”.
